Patent publication US20230287003A1, “BCL6 INHIBITORS” (Cancer Research Technology Limited, priority 2018, published 2023)
Like-named read-outs stand apart in the source and are kept apart here.

Target: human BCL6 BTB domain (Trx-6×His-BCL6) / BCOR-AF633 peptide (Homo sapiens (Human), UniProt P41182)
Assay: HTRF assay
Type: binding
[1] = 1 nM Trx-6×His-BCL6, 300 nM BCOR-AF633 peptide, 2 hours incubation
[2] = read-out: IC50 in the HTRF assay

Protocol: The % inhibition at each concentration was calculated by normalising FRET ratio to the appropriate high (DMSO with all reagents) and low (DMSO without BCL6) controls.

(S)-10-((5-chloro-2-((3R,5S)-3-hydroxy-5- methylpiperidin-1-yl)pyrimidin-4-yl)amino)-2,7-dimethyl-1,2,3,4- tetrahydro-[1,4]oxazepino[2,3-c]quinolin-6(7H)-one or (S)-10-((5- chloro-2-((3S,5R)-3-hydroxy-5-methylpiperidin-1-yl)pyrimidin-4- yl)amino)-2,7-dimethyl-1,2,3,4-tetrahydro- [1,4]oxazepino[2,3-c]quinolin-6(7H)-one [Example 12k]
HTRF avg pIC50 (1 nM) [1]: 7.04

CN1CC2CC(C1)N2c1ncc(Cl)c(Nc2ccc3c(c2)c2c(c(=O)n3C)OCC(F)(F)[C@H](C3CC3)N2)n1 [Example 13h, (2S)-10-((5-chloro-2-(3-methyl-3,6-diazabicyclo[3.1.1]heptan-6-yl)pyrimidin-4-yl)amino)-2-cyclopropyl-3,3-difluoro-7-methyl-1,2,3,4-tetrahydro-[1,4]oxazepino[2,3-c]quinolin-6(7H)-one: formic acid (1:1)]
HTRF avg pIC50 (1 nM) [1]: 8.43

(S)-10-((5-chloro-2-((S)-4,4-difluoro-3- (hydroxymethyl)piperidin-1-yl)pyrimidin-4-yl)amino)-2-cyclopropyl- 3,3-difluoro-7-methyl-1,2,3,4-tetrahydro-[1,4]oxazepino[2,3-c]quinolin- 6(7H)-one or (S)-10-((5-chloro-2-((R)-4,4-difluoro-3- (hydroxymethyl)piperidin-1-yl)pyrimidin-4-yl)amino)-2-cyclopropyl- 3,3-difluoro-7-methyl-1,2,3,4-tetrahydro-[1,4]oxazepino[2,3-c]quinolin- 6(7H)-one [Example 12q]
HTRF avg pIC50 (1 nM) [1]: 8.65

C[C@H]1CCOc2c(c3cc(Nc4cc(C(=O)O)nc(Cl)c4C#N)ccc3n(C)c2=O)N1 [Example 2a, (S)-6-chloro-5-cyano-4-((2,7-dimethyl-6-oxo-1,2,3,4,6,7-hexahydro-[1,4]ox-azepino[2,3-c]quinolin-10-yl)amino)picolinic acid]
HTRF avg pIC50 (1 nM) [1]: 7.26

CC1CNC(=O)c2c(c3cc(Nc4ccnc(Cl)c4C#N)ccc3n(C)c2=O)N1 (centres unmarked) [Example 18a, 2-chloro-4-((2,7-dimethyl-5,6-dioxo-2,3,4,5,6,7-hexahydro-1H-[1,4]diazepino[6,5-c]quinolin-10-yl)amino)nicotinonitrile]
HTRF avg pIC50 (1 nM) [1]: 6.58

Cn1c(=O)c2c(c3cc(Nc4ccnc(Cl)c4C#N)ccc31)NC1(CCOC1)CCO2 (centres unmarked) [Example 1o, 2-chloro-4-((7′-methyl-6′-oxo-3′,4,4′,5,6′,7′-hexahydro-1′H,2H-spiro[furan-3,2′-[1,4]oxazepino[2,3-c]quinolin]-10′-yl)amino)nicotinonitrile]
HTRF avg pIC50 (1 nM) [1]: 6.14

CNCCn1c(=O)c2c(c3cc(Nc4nc(N5C[C@@H](C)C(F)(F)[C@@H](C)C5)ncc4Cl)ccc31)N[C@@H](C1CC1)CCO2 [Example 17a, (R)-10-((5-chloro-2-((3S,5R)-4,4-difluoro-3,5-dimethylpiperidin-1-yl)pyrimidin-4-yl)amino)-2-cyclopropyl-7-(2-(methylamino)ethyl)-1,2,3,4-tetrahydro-[1,4]oxazepino[2,3-c]quinolin-6(7H)-one]
HTRF avg pIC50 (1 nM) [1]: 7.15

C[C@H]1COC(=O)c2c(c3cc(Nc4nc(N5CC6CCC(C6)C5)ncc4Cl)ccc3n(C)c2=O)N1 [Example 8h, (2S)-10-((2-(3-azabicyclo[3.2.1]octan-3-yl)-5-chloropyrimidin-4-yl)amino)-2,7-dimethyl-2,3-dihydro-[1,4]oxazepino[6,5-c]quinoline-5,6(1H,7H)-dione]
HTRF avg pIC50 (1 nM) [1]: 6.47

Cn1c(=O)c2c(c3cc(Nc4nc(N5CCc6ncnc(O)c6C5)ncc4Cl)ccc31)N[C@@H](C1CC1)C(F)(F)CO2 [Example 13a, (S)-10-((5-chloro-2-(4-hydroxy-7,8-dihydropyrido[4,3-d]pyrimidin-6(5H)-yl)pyrimidin-4-yl)amino)-2-cyclopropyl-3,3-difluoro-7-methyl-1,2,3,4-tetrahydro-[1,4]oxazepino[2,3-c]quinolin-6(7H)-one]
HTRF avg pIC50 (1 nM) [1]: 8.68

Cn1c(=O)c2c(c3cc(Nc4ccncc4Cl)ccc31)N[C@@H](C1CC1)C(F)(F)CO2 [Example 4d, (S)-10-((3-chloropyridin-4-yl)amino)-2-cyclopropyl-3,3-difluoro-7-methyl-1,2,3,4-tetrahydro-[1,4]oxazepino[2,3-c] quinolin-6(7H)-one]
HTRF avg pIC50 (1 nM) [1]: 7.99

COc1cnc(N2C[C@@H](C)C(F)(F)[C@@H](C)C2)nc1Nc1ccc2c(c1)c1c(c(=O)n2C)OCC[C@H](C2CC2)N1 [(R)-2-cyclopropyl-10-((2-((3S,5R)-4,4-difluoro-3,5-dimethylpiperidin-1-yl)-5-methoxypyrimidin-4-yl)amino)-7-methyl-1,2,3,4-tetrahydro-[1,4]oxazepino[2,3-c]quinolin-6(7H)-one]
IC50 [2]: > 2.5 µM

CC1CC(C)(C)Oc2c(c3cc(Nc4ccnc(Cl)c4C#N)ccc3n(C)c2=O)N1 (centres unmarked) [2-chloro-4-((2,4,4,7-tetramethyl-6-oxo-1,2,3,4,6,7-hexahydro-[1,4]oxazepino[2,3-c]quinolin-10-yl)amino)nicotinonitrile]
IC50 [2]: > 2.5 µM

CN1CCN(c2ncc(F)c(Nc3ccc4c(c3)c3c(c(=O)n4C)OCC(F)(F)[C@H](C4CC4)N3)n2)CC1=O [Example 13i, (S)-2-cyclopropyl-3,3-difluoro-10-((5-fluoro-2-(4-methyl-3-oxopiperazin-1-yl)pyrimidin-4-yl)amino)-7-methyl-1,2,3,4-tetrahydro-[1,4]oxazepino[2,3-c]quinolin-6(7H)-one]
HTRF avg pIC50 (1 nM) [1]: 8.45

Cn1c(=O)c2c(c3cc(Nc4nc(N5C6CCCC5CC6)ncc4Cl)ccc31)N[C@@H](C1CC1)COC2=O [Example 8j, (2S)-10-((2-(8-azabicyclo[3.2.1]octan-8-yl)-5-chloropyrimidin-4-yl)amino)-2-cyclopropyl-7-methyl-2,3-dihydro-[1,4]oxazepino[6,5-c]quinoline-5,6(1H,7H)-dione]
HTRF avg pIC50 (1 nM) [1]: 6.65

CC(=O)N1CC2CC(C1)CN(c1ncc(Cl)c(Nc3ccc4c(c3)c3c(c(=O)n4C)C(=O)OC[C@H](C)N3)n1)C2 [(2S)-10-((2-(7-acetyl-3,7-diazabicyclo[3.3.1]nonan-3-yl)-5-chloropyrimidin-4-yl)amino)-2,7-dimethyl-2,3-dihydro-[1,4]oxazepino[6,5-c]quinoline-5,6(1H,7H)-dione]
IC50 [2]: > 2.5 µM

C[C@@H]1CN(c2ncc(Cl)c(Nc3ccc4c(c3)c3c(c(=O)n4C)OCC(F)(F)[C@H](C4CC4)N3)n2)CCO1 [Example 12s, (S)-10-((5-chloro-2-((R)-2-methylmorpholino)pyrimidin-4-yl)amino)-2-cyclopropyl-3,3-difluoro-7-methyl-1,2,3,4-tetrahydro-[1,4]oxazepino[2,3-c]quinolin-6(7H)-one]
HTRF avg pIC50 (1 nM) [1]: 8.47

Cn1c(=O)c2c(c3cc(Nc4ccnc(Cl)c4C#N)ccc31)NC(C1CC1)CO2 (centres unmarked) [Example 1m, 2-chloro-4((2-cyclopropyl-6-methyl-5-oxo-2,3,5,6-tetrahydro-1H-[1,4]oxazino[2,3-c]quinolin-9-yl)amino)nicotinonitrile]
HTRF avg pIC50 (1 nM) [1]: 6.20

Cn1c(=O)c2c(c3cc(Nc4ccnc(Cl)c4C#N)ccc31)N[C@@H](C1CC1)COC2=O [Example 6b, (S)-2-chloro-4-((2-cyclopropyl-7-methyl-5,6-dioxo-1,2,3,5,6,7-hexahydro-[1,4]oxazepino[6,5-c]quinolin-10-yl)amino)nicotinonitrile]
IC50 (HTRF avg pIC50 (1 nM), 1 nM Trx-6×His-BCL6, 300 nM BCOR-AF633 peptide, 2 hours incubation): 0.166 µM

CN1CC2(C1)CN(c1ncc(Cl)c(Nc3ccc4c(c3)c3c(c(=O)n4C)OCC(F)(F)[C@H](C4CC4)N3)n1)C2 [Example 13g, (S)-10-((5-chloro-2-(6-methyl-2,6-diazaspiro[3.3]heptan-2-yl)pyrimidin-4-yl)amino)-2-cyclopropyl-3,3-difluoro-7-methyl-1,2,3,4-tetrahydro-[1,4]oxazepino[2,3-c]quinolin-6(7H)-one: formic acid (1:2)]
HTRF avg pIC50 (1 nM) [1]: 8.50

(R)-10-((5-chloro-2-((R)-4,4-difluoro-3- hydroxypiperidin-1-yl)pyrimidin-4-yl)amino)-2-cyclopropyl-7- methyl-1,2,3,4-tetrahydro-[1,4]oxazepino[2,3-c]quinolin-6(7H)- one or (R)-10-((5-chloro-2((S)-4,4-difluoro-3-hydroxypiperidin-1- yl)pyrimidin-4-yl)amino)-2-cyclopropyl-7-methyl-1,2,3,4- tetrahydro-[1,4]oxazepino[2,3-c]quinolin-6(7H)-one [Example 12y]
HTRF avg pIC50 (1 nM) [1]: 7.73

Cn1c(=O)c2c(c3cc(Nc4ccnc(Cl)c4C#N)ccc31)NC(C1CCC1)CO2 (centres unmarked) [Example 1n, 2-chloro-4-((2-cyclobutyl-6-methyl-5-oxo-2,3,5,6-tetrahydro-1H-[1,4]oxazino[2,3-c]quinolin-9-yl)amino)nicotinonitrile]
HTRF avg pIC50 (1 nM) [1]: 5.70

Cn1c(=O)c2c(c3cc(Nc4nc(N5CCC(F)(F)CC5)ncc4Cl)ccc31)N[C@@H](C1CC1)C(F)(F)CO2 [Example 12n, (S)-10-((5-chloro-2-(4,4-difluoropiperidin-1-yl)pyrimidin-4-yl)amino)-2-cyclopropyl-3,3-difluoro-7-methyl-1,2,3,4-tetrahydro-[1,4]oxazepino[2,3-c]quinolin-6(7H)-one]
HTRF avg pIC50 (1 nM) [1]: 7.94

COCC1(C)CCOc2c(c3cc(Nc4nc(-n5ccc(C(F)(F)F)n5)ncc4Cl)ccc3n(C)c2=O)N1 (centres unmarked) [Example 5b, 10-((5-chloro-2-(3-(trifluoromethyl)-1H-pyrazol-1-yl)pyrimidin-4-yl)amino)-2-(methoxymethyl)-2,7-dimethyl-1,2,3,4-tetrahydro-[1,4]oxazepino[2,3-c]quinolin-6(7H)-one]
HTRF avg pIC50 (1 nM) [1]: 6.09
